According to ChEMBL document CHEMBL4007428, “Modulating the selectivity of matriptase-2 inhibitors with unnatural amino acids” (Eur J Med Chem, 2017):

Assays:
[1] = biological target: T1, Suppressor of tumorigenicity 14 protein (Homo sapiens, UniProt Q9Y5Y6)
T1 sequence (Q9Y5Y6 whole entry): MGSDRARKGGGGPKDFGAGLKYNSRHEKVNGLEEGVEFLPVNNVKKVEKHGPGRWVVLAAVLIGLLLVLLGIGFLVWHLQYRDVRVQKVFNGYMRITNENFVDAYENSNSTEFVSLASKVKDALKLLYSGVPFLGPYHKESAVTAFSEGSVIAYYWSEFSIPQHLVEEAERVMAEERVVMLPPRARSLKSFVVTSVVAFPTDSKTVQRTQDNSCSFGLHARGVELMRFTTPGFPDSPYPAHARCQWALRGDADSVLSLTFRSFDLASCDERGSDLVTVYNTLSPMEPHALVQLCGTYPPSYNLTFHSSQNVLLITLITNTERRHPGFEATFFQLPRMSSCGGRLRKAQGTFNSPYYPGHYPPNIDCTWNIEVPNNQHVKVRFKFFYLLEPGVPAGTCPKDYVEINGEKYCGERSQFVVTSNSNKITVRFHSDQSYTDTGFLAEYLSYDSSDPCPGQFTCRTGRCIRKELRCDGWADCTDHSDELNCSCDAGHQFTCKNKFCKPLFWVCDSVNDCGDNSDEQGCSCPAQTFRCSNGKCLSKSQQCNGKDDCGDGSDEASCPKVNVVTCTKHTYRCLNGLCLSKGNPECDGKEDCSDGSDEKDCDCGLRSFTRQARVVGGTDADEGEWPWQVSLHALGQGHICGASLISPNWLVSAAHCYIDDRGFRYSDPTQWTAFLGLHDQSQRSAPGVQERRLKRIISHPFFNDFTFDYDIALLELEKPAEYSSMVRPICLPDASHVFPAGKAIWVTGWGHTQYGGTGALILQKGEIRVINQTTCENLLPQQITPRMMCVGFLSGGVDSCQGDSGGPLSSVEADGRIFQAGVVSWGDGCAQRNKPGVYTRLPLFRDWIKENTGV
Description: Inhibition of recombinant human matriptase (596 to 855 residues) expressed in Escherichia coli using Boc-Gln-Ala-ArgAMC as substrate measured for 1200 mins by fluorescence assay

[2] = biological target: T2, Transmembrane protease serine 6 (Homo sapiens, UniProt Q8IU80); test: Inhibition of recombinant human C-terminal V5-His-tagged matriptase-2 expressed in Drosophila S2 cells using Boc-Gln-Ala-ArgAMC as substrate measured for 1200 mins by fluorescence assay
T2 sequence (Q8IU80 whole entry): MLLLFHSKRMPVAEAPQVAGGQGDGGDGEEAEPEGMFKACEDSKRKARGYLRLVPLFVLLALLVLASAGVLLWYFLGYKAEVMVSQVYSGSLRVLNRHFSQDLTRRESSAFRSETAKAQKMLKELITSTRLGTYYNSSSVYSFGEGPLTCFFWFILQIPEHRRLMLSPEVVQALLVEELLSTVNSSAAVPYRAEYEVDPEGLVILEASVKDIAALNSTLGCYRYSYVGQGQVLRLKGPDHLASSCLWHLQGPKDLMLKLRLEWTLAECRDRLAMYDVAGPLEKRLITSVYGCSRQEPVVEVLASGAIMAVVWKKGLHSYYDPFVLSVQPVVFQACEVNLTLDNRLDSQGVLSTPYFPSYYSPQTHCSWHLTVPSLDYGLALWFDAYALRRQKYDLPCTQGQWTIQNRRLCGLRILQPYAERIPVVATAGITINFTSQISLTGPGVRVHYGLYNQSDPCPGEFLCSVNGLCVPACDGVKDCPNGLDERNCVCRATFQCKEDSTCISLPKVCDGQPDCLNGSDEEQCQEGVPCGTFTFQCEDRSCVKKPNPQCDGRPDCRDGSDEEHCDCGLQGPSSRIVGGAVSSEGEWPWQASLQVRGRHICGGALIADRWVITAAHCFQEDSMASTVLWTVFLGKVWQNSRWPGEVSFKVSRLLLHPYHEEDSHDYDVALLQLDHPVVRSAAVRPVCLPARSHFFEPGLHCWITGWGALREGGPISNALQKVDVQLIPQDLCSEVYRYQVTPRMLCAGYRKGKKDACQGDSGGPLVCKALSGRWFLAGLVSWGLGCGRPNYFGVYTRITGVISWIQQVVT

[3] = species on record: Homo sapiens; test: Selectivity ratio of Ki for recombinant human matriptase (596 to 855 residues) expressed in Escherichia coli to Ki for recombinant human C-terminal V5-His-tagged matriptase-2 expressed in Drosophila S2 cells
[4] = Stability in mouse plasma assessed as parent compound remaining after 24 hrs; assay type: ADME, cell-free; conditions: read-out: Stability
[5] = biological target: T3, Transmembrane protease serine 6 (Homo sapiens) (UniProt Q8IU80); test: Reversible inhibition of recombinant human C-terminal V5-His-tagged matriptase-2 expressed in Drosophila S2 cells assessed as dissociation half time using Boc-Gln-Ala-ArgAMC as substrate measured for 1200 mins by fluorescence assay
T3 sequence (whole entry): T2 sequence (Q8IU80 whole entry)

| SMILES | Ki [1] | Ki [2] | Ratio Ki [3] | remaining at 24 h [4] | T1/2 [5] |
| --- | --- | --- | --- | --- | --- |
| N=C(N)NCCC[C@H](NC(=O)[C@@H](NC(=O)C(Cc1ccc(O)cc1)NC(=O)CCc1ccccc1)C(c1ccccc1)c1ccccc1)C(=O)c1nc2ccccc2s1 (single isomer, unassigned) | 1380 nM | 340 nM | 4 | – | – |
| CC[C@H](C)[C@H](NC(=O)[C@H](CCc1ccccc1)NC(=O)CCc1ccccc1)C(=O)N[C@@H](CCCNC(=N)N)C(=O)c1nc2ccccc2s1 | 230 nM | 4 nM | 58 | – | – |
| CC(C)(C)[C@H](NC(=O)[C@H](CCc1ccccc1)NC(=O)CCc1ccccc1)C(=O)N[C@@H](CCCNC(=N)N)C(=O)c1nc2ccccc2s1 | 15000 nM | 560 nM | 27 | – | – |
| CC(C)[C@@H](NC(=O)[C@H](CCc1ccccc1)NC(=O)CCc1ccccc1)C(=O)N[C@@H](CCCNC(=N)N)C(=O)c1nc2ccccc2s1 | 240 nM | 7 nM | 34 | – | – |
| CC(C)[C@H](NC(=O)C(Cc1ccc(O)cc1)NC(=O)[C@@H](N)Cc1ccc(O)cc1)C(=O)N[C@@H](CCCNC(=N)N)C(=O)c1nc2ccccc2s1 (single isomer, unassigned) | – | – | 12 | 0% | – |
| N=C(N)NCCC[C@H](NC(=O)[C@H](Cc1c[nH]c2ccccc12)NC(=O)C(Cc1ccc(O)cc1)NC(=O)[C@@H](N)Cc1ccc(O)cc1)C(=O)c1nc2ccccc2s1 (single isomer, unassigned) | 5.6 nM | 3.1 nM | 2 | – | – |
| N=C(N)NCCC[C@H](NC(=O)[C@H](Cc1ccc(O)cc1)NC(=O)C(Cc1ccc(O)cc1)NC(=O)[C@@H](N)Cc1ccc(O)cc1)C(=O)c1nc2ccccc2s1 (single isomer, unassigned) | 7 nM | 1.1 nM | 6 | – | – |
| CC(C)[C@H](NC(=O)[C@H](Cc1cccc(Cl)c1)NC(=O)[C@@H](N)Cc1ccc(O)cc1)C(=O)N[C@@H](CCCNC(=N)N)C(=O)c1nc2ccccc2s1 | 34 nM | 5 nM | 7 | – | – |
| CC(C)[C@H](NC(=O)[C@H](Cc1ccc(OCc2ccccc2)cc1)NC(=O)CCc1ccccc1)C(=O)N[C@@H](CCCNC(=N)N)C(=O)c1nc2ccccc2s1 | 71 nM | 3.5 nM | 20 | – | – |
| CCC[C@H](NC(=O)[C@H](CCc1ccccc1)NC(=O)CCc1ccccc1)C(=O)N[C@@H](CCCNC(=N)N)C(=O)c1nc2ccccc2s1 | 26 nM | 2.3 nM | 11 | – | – |
| C[C@@H](O)[C@H](NC(=O)[C@H](CCc1ccccc1)NC(=O)CCc1ccccc1)C(=O)N[C@@H](CCCNC(=N)N)C(=O)c1nc2ccccc2s1 | 120 nM | 5.3 nM | 23 | – | – |
| N=C(N)NCCC[C@H](NC(=O)[C@H](Cc1cscn1)NC(=O)C(Cc1ccc(O)cc1)NC(=O)[C@@H](N)Cc1ccc(O)cc1)C(=O)c1nc2ccccc2s1 (single isomer, unassigned) | 20 nM | 13 nM | 2 | – | – |
| N=C(N)NCCC[C@H](NC(=O)[C@H](Cc1c[nH]cn1)NC(=O)C(Cc1ccc(O)cc1)NC(=O)[C@@H](N)Cc1ccc(O)cc1)C(=O)c1nc2ccccc2s1 (single isomer, unassigned) | 48 nM | 56 nM | 0.9 | – | – |
| CC(C)[C@H](NC(=O)[C@H](Cc1cscn1)NC(=O)CCc1ccccc1)C(=O)N[C@@H](CCCNC(=N)N)C(=O)c1nc2ccccc2s1 | 4 to 12 nM | 0.4 to 1.2 nM | 10 | > 75% | 48 min |
| CC[C@@H](C)[C@@H](NC(=O)[C@H](CCc1ccccc1)NC(=O)CCc1ccccc1)C(=O)N[C@@H](CCCNC(=N)N)C(=O)c1nc2ccccc2s1 | 150 nM | 5 nM | 30 | – | – |
| N=C(N)NCCC[C@H](NC(=O)[C@H](Cc1cccs1)NC(=O)C(Cc1ccc(O)cc1)NC(=O)[C@@H](N)Cc1ccc(O)cc1)C(=O)c1nc2ccccc2s1 (single isomer, unassigned) | 19 nM | 6 nM | 3 | – | – |
| CC(C)C[C@H](NC(=O)[C@H](CCc1ccccc1)NC(=O)CCc1ccccc1)C(=O)N[C@@H](CCCNC(=N)N)C(=O)c1nc2ccccc2s1 | 120 nM | 5.2 nM | 23 | – | – |
| CC(C)[C@H](NC(=O)C(Cc1ccc(O)cc1)NC(=O)CCc1ccc(O)cc1)C(=O)N[C@@H](CCCNC(=N)N)C(=O)c1nc2ccccc2s1 (single isomer, unassigned) | 34 to 38 nM | 1.2 to 2 nM | 17 | 40% | 24 min |
| C[C@H](O)[C@H](NC(=O)[C@H](CCc1ccccc1)NC(=O)CCc1ccccc1)C(=O)N[C@@H](CCCNC(=N)N)C(=O)c1nc2ccccc2s1 | 200 nM | 3.1 nM | 64 | > 75% | – |
| CC(C)[C@H](NC(=O)C(Cc1ccc(O)cc1)NC(=O)CCc1ccccc1)C(=O)N[C@@H](CCCNC(=N)N)C(=O)c1nc2ccccc2s1 (single isomer, unassigned) | 43 nM | 1.74 nM | 25 | – | – |
| CC(C)[C@H](NC(=O)[C@H](Cc1ccccc1)NC(=O)[C@@H](N)Cc1ccc(O)cc1)C(=O)N[C@@H](CCCNC(=N)N)C(=O)c1nc2ccccc2s1 | 63 nM | 9 nM | 7 | – | – |
| CC(C)[C@H](NC(=O)[C@H](CCc1ccccc1)NC(=O)CCc1ccccc1)C(=O)N[C@@H](CCCNC(=N)N)C(=O)c1nc2ccccc2s1 | 65 nM | 2.1 nM | 31 | – | – |
| CC(C)[C@H](NC(=O)[C@H](Cc1ccc(O)cc1)NC(=O)CC12CC3CC(CC(C3)C1)C2)C(=O)N[C@@H](CCCNC(=N)N)C(=O)c1nc2ccccc2s1 | 39 nM | 6 nM | 6 | – | – |
| N=C(N)NCCC[C@H](NC(=O)[C@H](Cc1ccc2ccccc2c1)NC(=O)C(Cc1ccc(O)cc1)NC(=O)[C@@H](N)Cc1ccc(O)cc1)C(=O)c1nc2ccccc2s1 (single isomer, unassigned) | – | 5.3 nM | – | – | – |
| CC[C@H](NC(=O)[C@H](CCc1ccccc1)NC(=O)CCc1ccccc1)C(=O)N[C@@H](CCCNC(=N)N)C(=O)c1nc2ccccc2s1 | 20 to 21 nM | 1.5 to 1.6 nM | 13 | – | 18 min |
| CC[C@@H](C)[C@H](NC(=O)[C@H](CCc1ccccc1)NC(=O)CCc1ccccc1)C(=O)N[C@@H](CCCNC(=N)N)C(=O)c1nc2ccccc2s1 | 51 nM | 2.6 nM | 20 | – | – |
| CC[C@H](C)[C@@H](NC(=O)[C@H](CCc1ccccc1)NC(=O)CCc1ccccc1)C(=O)N[C@@H](CCCNC(=N)N)C(=O)c1nc2ccccc2s1 | 12000 nM | 690 nM | 17 | – | – |
| N=C(N)NCCC[C@H](NC(=O)[C@H](Cc1ccc(O)c(O)c1)NC(=O)C(Cc1ccc(O)cc1)NC(=O)[C@@H](N)Cc1ccc(O)cc1)C(=O)c1nc2ccccc2s1 (single isomer, unassigned) | 12 nM | 5 nM | 2 | – | – |
| CC(C)CCC(=O)NC(Cc1ccc(O)cc1)C(=O)N[C@H](C(=O)N[C@@H](CCCNC(=N)N)C(=O)c1nc2ccccc2s1)C(C)C (single isomer, unassigned) | 28 nM | 6 nM | 5 | – | – |
